Consider 55 compounds from patent publication US20260184704A1, “NLRP3 INFLAMMASOME INHIBITORS AND USES THEREOF” (Insilico Medicine IP Limited, priority 2023, published 2026).

For one assay, the target named is T1, NLRP3 (Homo sapiens, UniProt Q96P20).
T1 construct: purchased ICE YM2306T-H06MHS
Nature of the assay: NLRP3 Enzymatic Activity ADP-Glo Assay (Example B-4). It is filed as biochemical. As to conditions: hydrolysis of ATP by NLRP3; NLRP3 15 nM, ATP 1 μM; read-out: NLRP3_ADP-Glo_IC50 (nM), Example B-4. The procedure: Example B-4: NLRP3 Enzymatic Activity ADP-Glo Assay
NLRP3 activity test experiment, measuring the hydrolysis of NLRP3 on the substrate ATP using the ADP-Glo assay. First, after adding an inhibitor containing 0.5% DMSO with Echo, add 5 μL of NLRP3 (ICE, YM2306T-H06MHS) enzyme solution to each well, centrifuge at 1000 rpm for 1 min at room temperature and react for 10 min. Then add 5 μL of ATP (Promega, V915A) substrate solution to each well for 90 min at room temperature; NLRP3 and ATP were prepared in 50 mM HEPES, 10 mM MgCl2, 0.01% Brij-35, 1 mM EGTA, and 2 mM DTT buffers at final concentrations of 15 nM and 1 μM, respectively. Subsequently, 10 μL ADP-Glo reagent solution (Promega, V9102) was added into each assay well, centrifuged at 1000 rpm for 1 min, and then incubated at room temperature for 45 min. Finally, 20 μL ADP-Glo detection solution (Promega, V9102) is added to each well, centrifuged at 1000 rpm for 1 min and reacted for 45 min at room temperature. The luminescence signal values were read using a BMG instrument and the IC50 values were determined by fitting the data to an S-shaped dose-response curve using nonlinear regression.

Assay [1] concerns THP-1 cells, IL-1β release. The assay can be described thus: IL-1β Release THP-1 Assay (Example B-3). Format: cell-based. The conditions noted are these: Homo sapiens; PMA-differentiated THP-1 cells, LPS then Nigericin, IL-1β by Elisa; read-out: Potency, THP-1 IL-1β, IC50 (nM), Example B-3. The method, then: Example B-3: IL-1β Release THP-1 Assay
THP-1 cells Culture RPMI1640 medium, 10% FBS, 1% PS, 55 uM β-Mer at 37° C. & 5% CO2 incubator.
IL-1β Release Detection • 1) Seed THP-1 in complete RPMI 1640 medium containing PMA into 96 well plate coated with poly-L-lysin incubate for 24 hours. • 2) Remove medium, wash the differentiated THP-1 cells with PBS, add FBS free RPMI 1640 medium. • 3) Add LPS and incubate for 3 hours at 37° C. & 5% CO2 incubator. • 4) Add compounds and incubate for 30 minutes at 37° C. & 5% CO2 incubator. • 5) Add Nigericin and incubate for 1 hour at 37° C. & 5% CO2 incubator. • 6) Collect supernatant to test IL-1β by Elisa.
• a) Assay robustness check with DMSO and Low control data:
[formula] • X: cpd concentration • Y: change % • Top and Bottom: Plateaus in same units as Y • logIC50: same log units as X • HillSlope: Slope factor or Hill slope

The structures appear in SMILES notation.

T1 sequence (Q96P20 whole entry): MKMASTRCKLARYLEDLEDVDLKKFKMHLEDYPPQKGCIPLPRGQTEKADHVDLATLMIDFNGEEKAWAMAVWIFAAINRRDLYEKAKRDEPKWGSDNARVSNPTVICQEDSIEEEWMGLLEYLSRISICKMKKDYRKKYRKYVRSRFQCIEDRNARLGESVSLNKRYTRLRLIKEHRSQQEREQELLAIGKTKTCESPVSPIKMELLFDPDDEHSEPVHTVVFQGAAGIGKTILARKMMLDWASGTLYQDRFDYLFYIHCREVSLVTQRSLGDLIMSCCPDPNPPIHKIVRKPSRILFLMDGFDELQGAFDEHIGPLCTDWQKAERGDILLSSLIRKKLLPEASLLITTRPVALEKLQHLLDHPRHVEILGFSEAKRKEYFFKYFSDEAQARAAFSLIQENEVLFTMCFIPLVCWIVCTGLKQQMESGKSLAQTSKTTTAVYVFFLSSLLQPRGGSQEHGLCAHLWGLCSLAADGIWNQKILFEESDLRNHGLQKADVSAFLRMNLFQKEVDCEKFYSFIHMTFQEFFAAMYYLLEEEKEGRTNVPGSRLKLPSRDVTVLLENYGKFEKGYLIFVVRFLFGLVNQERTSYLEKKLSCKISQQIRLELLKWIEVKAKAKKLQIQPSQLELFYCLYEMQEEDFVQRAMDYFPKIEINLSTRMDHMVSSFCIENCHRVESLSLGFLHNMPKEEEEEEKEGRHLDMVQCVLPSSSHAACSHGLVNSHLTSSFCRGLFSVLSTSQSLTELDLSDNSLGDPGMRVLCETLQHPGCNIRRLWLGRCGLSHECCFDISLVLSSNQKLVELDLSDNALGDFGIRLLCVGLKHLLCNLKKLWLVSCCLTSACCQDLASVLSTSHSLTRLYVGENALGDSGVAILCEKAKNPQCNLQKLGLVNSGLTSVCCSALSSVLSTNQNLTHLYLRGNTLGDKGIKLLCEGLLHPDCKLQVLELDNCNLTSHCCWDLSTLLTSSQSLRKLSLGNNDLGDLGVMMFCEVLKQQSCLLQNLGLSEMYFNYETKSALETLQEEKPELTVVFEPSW

Turning to `Cc1cc(C(F)(F)F)cc(O)c1C1=NN=C(N[C@@H]2CCCN(C)C2)N(C)C1` [Compound 36], the IC50 (on NLRP3; in assay [1]) was 100 to 1000 nM each time.
Consider `[2H]C([2H])([2H])c1cc2c(c(O)c1C1=NN=C(N[C@H]3C[C@@](C)(O)C3)SC1)CCO2` [Compound 71], for which the IC50 at NLRP3 was in the range of 10 to 100 nM.
For the compound `Cc1cc(C(F)(F)F)cc(O)c1C1=NN=C(N[C@@H]2CCCNC2)SC1` [Compound 2], the IC50 in assay [1] is under 10 nM.
On to `Cc1cc(C#N)cc(O)c1C1=NN=C(N[C@@H]2CCCN(C)C2)SC1` [Compound 37], for which the IC50 (on NLRP3; in assay [1]) was 10 to 100 nM throughout.
In the case of `C[C@]1(O)C[C@@H](NC2=NN=C(c3c(O)cc(C(F)(F)F)cc3Cl)CS2)C1` [Compound 45], the IC50 (at NLRP3; in assay [1]) was 10 to 100 nM in each case.
Turning to `CCN1CCC[C@@H](NC2=NN=C(c3c(C)cc4sccc4c3O)CS2)C1` [Compound 46], the IC50 (on NLRP3; in assay [1]) was under 10 nM in each case.
Consider `Cc1cc(C(F)(F)F)cc(O)c1C1=NN=C(N[C@@H]2CCN(C)C2)SC1` [Compound 11], for which, in assay [1], the IC50 was in the range of 10 to 100 nM.
Consider `Cc1cc(C(F)(F)F)cc(O)c1C1=NN=C(N[C@@H]2CCCN(C3COC3)C2)SC1` [Compound 17], for which the IC50 in assay [1] was in the range of 10 to 100 nM.
Regarding `Cc1cc2c(c(O)c1C1=NN=C(N[C@H]3C[C@@](C)(O)C3)SC1)OCC2` [Compound 64], on NLRP3, the IC50 is 10 to 100 nM.
Regarding `Cc1cc2c(c(O)c1C1=NN=C(N[C@@H]3CCCN(CCO)C3)SC1)CCO2` [Compound 40], the IC50 (at NLRP3; in assay [1]) was 10 to 100 nM in each case.
As for `Cc1cc2c(c(O)c1C1=NN=C(N[C@H]3C[C@](C)(N)C3)SC1)CC2` [Compound 69], the IC50 on NLRP3 is 100 to 1000 nM.
For `Cc1cc2c(c(O)c1C1=NN=C(N[C@H]3C[C@@](C)(O)C3)SC1)CCC2` [Compound 50], the IC50 (at NLRP3; in assay [1]) was 10 to 100 nM throughout.
For the compound `CCN1CCC[C@@H](NC2=NN=C(c3c(C)cc(C(F)(F)F)cc3O)CS2)C1` [Compound 3], the IC50 in assay [1] is under 10 nM.
With `Cc1cc2c(cc1C1=NN=C(N[C@@H]3CCCN(C)C3)SC1)CCO2` [Compound 49], the IC50 at NLRP3 is over 1000 nM.
As to `Cc1cc2c(c(O)c1C1=NN=C(N[C@H]3C[C@](C)(O)C3)SC1)CCO2` [Compound 65], the IC50 on NLRP3 was 100 to 1000 nM.
`Cc1cc(C(F)(F)F)c(F)c(O)c1C1=NN=C(N[C@H]2C[C@@](C)(O)C2)SC1` [Compound 48]: the IC50 at NLRP3 lay within 10 to 100 nM; in assay [1], 100 to 1000 nM.
Turning to `Cc1cc(C(F)(F)F)cc(O)c1C1=NN=C(N2CCC[C@@H]2[C@H](C)O)SC1` (single isomer, unassigned) [Compound 34], the IC50 at NLRP3 was over 1000 nM.
Take `Cc1cc(C(F)(F)F)cc(O)c1C1=NN=C(Nc2cc[nH]n2)SC1` [Compound 22]: the IC50 in assay [1] is 100 to 1000 nM.
Take `Cc1cc2c(c(O)c1C1=NN=C(N[C@H]3C[C@@](C)(O)C3)SC1)COC2` [Compound 62]: on NLRP3, the IC50 was 100 to 1000 nM.
Consider `C[C@]1(O)C[C@@H](NC2=NN=C(c3c(C(F)F)cc4c(c3O)CCO4)CS2)C1` [Compound 66], for which the IC50 (on NLRP3; in assay [1]) was 10 to 100 nM each time.
`Cc1cc(OC(F)F)cc(O)c1C1=NN=C(N[C@H]2C[C@@](C)(O)C2)SC1` [Compound 25]: the IC50 (at NLRP3; in assay [1]) was 10 to 100 nM in each case.
Consider `Cc1cc2sccc2c(O)c1C1=NN=C(N[C@@H]2CCCN(CCO)C2)SC1` [Compound 47], for which the IC50 (at NLRP3; in assay [1]) was under 10 nM throughout.
In the case of `Cc1cc(C(F)(F)F)cc(O)c1C1=NN=C(N[C@H]2C[C@@](C)(O)C2)CS1` [Compound 201], the IC50 (at NLRP3; in assay [1]) was 10 to 100 nM each time.
As for `Cc1cc2c(c(O)c1C1=NN=C(N[C@H]3C[C@@](C)(O)C3)CS1)CCO2` [Compound 203], the IC50 (on NLRP3; in assay [1]) was 10 to 100 nM throughout.
Consider `Cc1cc(C(F)(F)F)cc(O)c1C1=NN=C(N[C@H]2CN3CCC2CC3)SC1` [Compound 20], for which, in assay [1], the IC50 was 10 to 100 nM.
For `Cc1cc(C(F)(F)F)cc(O)c1C1=NN=C(N[C@H]2C[C@@H](O)C2)SC1` [Compound 24], in assay [1], the IC50 was 100 to 1000 nM.
In the case of `Cc1cc(Cl)cc(O)c1C1=NN=C(N[C@H]2C[C@@](C)(O)C2)SC1` [Compound 30], the IC50 (on NLRP3; in assay [1]) was 10 to 100 nM throughout.
As to `Cc1cc(C(F)(F)F)cc(O)c1C1=NN=C(N[C@H]2C[C@](O)(C(F)(F)F)C2)SC1` [Compound 29], in assay [1], the IC50 fell in the range of 10 to 100 nM.
`CCN1CCC[C@@H](NC2=NN=C(c3c(C)cc4c(c3O)CCO4)CS2)C1` [Compound 54]: at NLRP3, the IC50 is under 10 nM.
Take `CNC(=O)CNC1=NN=C(c2c(C)cc(C(F)(F)F)cc2O)CS1` [Compound 32]: on NLRP3, the IC50 was over 1000 nM.
Turning to `Cc1cc(C(F)(F)F)cc(O)c1C1=NN=C(N[C@H]2C[C@@](C)(O)C2)C(C)(C)S1` [Compound 202], the IC50 (on NLRP3; in assay [1]) was 10 to 100 nM each time.
On to `Cc1cc2c(c(O)c1C1=NN=C(NC34CCC(O)(CC3)C4)SC1)CCO2` [Compound 63], for which the IC50 at NLRP3 was 100 to 1000 nM.
Consider `Cc1cc2c(c(O)c1C1=NN=C(N3CCC4CCN(C)CC43)SC1)CCO2` (stereo not shown) [Compound 51], for which the IC50 at NLRP3 was 10 to 100 nM; in assay [1], under 10 nM.
In the case of `Cc1c(F)c2c(c(O)c1C1=NN=C(N[C@@H]3CCCN(C)C3)SC1)CCO2` [Compound 57], the IC50 (at NLRP3; in assay [1]) was 10 to 100 nM in each case.
Turning to `Cc1cc(Cl)cc(O)c1C1=NN=C(N[C@H]2C[C@@](C)(N)C2)CS1` [Compound 206], the IC50 (at NLRP3; in assay [1]) was 10 to 100 nM throughout.
Turning to `Cc1cc2c(c(O)c1C1=NN=C(N[C@H]3C[C@](C)(O)C3)SC1)CC2` [Compound 67], the IC50 (at NLRP3; in assay [1]) was 10 to 100 nM in each case.
With `Cc1cc(C(F)(F)F)cc(O)c1C1=NN=C(N2CCC[C@@H]2[C@@H](C)O)SC1` (single isomer, unassigned) [Compound 33], the IC50 at NLRP3 was over 1000 nM.
In the case of `C[C@]1(O)C[C@@H](NC2=NN=C(c3c(O)cc(C(F)(F)F)cc3F)CS2)C1` [Compound 41], on NLRP3, the IC50 was 100 to 1000 nM.
On the same count and under the same terms, as for `Cc1cc(C(F)(F)F)cc(O)c1C1=NN=C(N[C@@H]2CCCN(C)C2)OC1` [Compound 52], the figure is over 1000 nM.
For `CC1SC(N[C@@H]2CCCN(C)C2)=NN=C1c1ccc(C(F)(F)F)cc1O` (stereo partly shown) [Compound 5], in assay [1], the IC50 lay in the range of 100 to 1000 nM.
With `Cc1cc(C(F)(F)F)cc(O)c1C1=NN=C(N[C@@H]2C[C@H](O)CN(C)C2)SC1` (single isomer, unassigned) [Compound 16], the IC50 in assay [1] lay within 10 to 100 nM.
For the compound `Cc1cc(C#N)cc(O)c1C1=NN=C(N2CCC3CCN(C)CC32)SC1` (stereo not shown) [Compound 39], the IC50 on NLRP3 fell in the range of 100 to 1000 nM.
In the case of `Cc1cc(Cl)cc(O)c1C1=NN=C(N[C@H]2C[C@](C)(N)C2)CS1` [Compound 207], the IC50 on NLRP3 was in the range of 100 to 1000 nM.
Turning to `Cc1cc(OC(F)F)cc(O)c1C1=NN=C(N[C@@H]2CCCN(C)C2)SC1` [Compound 21], the IC50 in assay [1] lay in the range of 10 to 100 nM.
Turning to `Cc1c(F)c2c(c(O)c1C1=NN=C(N[C@H]3C[C@@](C)(O)C3)SC1)CCO2` [Compound 61], the IC50 on NLRP3 is 10 to 100 nM.
For the compound `Cc1cc(C(F)(F)F)cc(OC(F)F)c1C1=NN=C(N[C@H]2C[C@@](C)(O)C2)SC1` [Compound 42], on NLRP3, the IC50 is over 1000 nM.
`Cc1cc(C(F)(F)F)cc(O)c1C1=NN=C(N[C@@H]2C[C@H](F)CN(C)C2)SC1` [Compound 9]: the IC50 in assay [1] fell in the range of 10 to 100 nM.
Consider `Cc1cc2c(c(O)c1C1=NN=C(N[C@]34CC[C@](O)(C3)C4)SC1)CCO2` [Compound 70], for which, at NLRP3, the IC50 was 100 to 1000 nM.
The same measure, in the same setting: next, `Cc1cc(C(F)(F)F)cc(O)c1C1=NN=C(NCCC(N)=O)SC1` [Compound 43]: over 1000 nM.
As for `Cc1cc(C(F)(F)F)cc(O)c1C1=NN=C(NC[C@@H](C)O)SC1` [Compound 26], the IC50 in assay [1] is 100 to 1000 nM.
The same measure, in the same setting: as for `Cc1cc(C(F)(F)F)cc(O)c1C1=NN=C(N[C@@H]2CCCN(CCO)C2)SC1` [Compound 6], the figure is under 10 nM; as for `Cc1cc(C(F)(F)F)cc(O)c1C1=NN=C(N[C@@H]2CCC[C@H](O)C2)SC1` [Compound 7], 10 to 100 nM.
On to `Cc1cc2occc2c(O)c1C1=NN=C(N[C@H]2C[C@@](C)(O)C2)SC1` [Compound 72], for which the IC50 on NLRP3 was under 10 nM.
For `Cc1cc2c(c(O)c1C1=NN=C(N(C)[C@@H]3CCCN(C)C3)SC1)CCO2` [Compound 55], at NLRP3, the IC50 lay within 100 to 1000 nM.
`CC#Cc1cc(C)c(C2=NN=C(N[C@@H]3CCCN(C)C3)SC2)c(O)c1` [Compound 56]: the IC50 on NLRP3 is 100 to 1000 nM.
